From patent US11590117B2, “Treatment of a hematologic malignancy with 2-(4-chlorophenyl)-n-((2-(2,6-dioxopiperidin-3-yl)-1-oxoisoindolin-5-yl)methyl)-2,2-difluoroacetamide” (priority 2016, dated 2023) come the findings set out here.

Data set [1] is described as follows: Dynamic vapor sorption (DVS) analysis. The conditions noted are these: relative humidity increased from about 0% to about 90% RH. It is filed as physicochemical. The method, then:
In certain embodiments, Form A is characterized by dynamic vapor sorption analysis. […] In certain embodiments, Form A comprises less than 0.1% water as determined in a coulometric Karl Fischer (KF) titrator equipped with an oven sample processor set at 225° C.
In certain embodiments, Form B is characterized by dynamic vapor sorption analysis. […] In certain embodiments, Form B comprises less than 0.1% water as determined in a coulometric Karl Fischer (KF) titrator equipped with an oven sample processor set at 225° C.
In certain embodiments, Form C is characterized by dynamic vapor sorption analysis. […] In certain embodiments, Form C comprises less than 0.1% water as determined in a coulometric Karl Fischer (KF) titrator equipped with an oven sample processor set at 225° C.

Data set [2] is classed as physicochemical. The text has this: In certain embodiments, the compound for use in the methods is an anhydrous Form C of 2-(4-chlorophenyl)-N-((2-(2,6-dioxopiperidin-3-yl)-1-oxoisoindolin-5-yl)methyl)-2,2-difluoroacetamide.
In certain embodiments, Form C is obtained by slurrying 2-(4-chlorophenyl)-N-((2-(2,6-dioxopiperidin-3-yl)-1-oxoisoindolin-5-yl)methyl)-2,2-difluoroacetamide in certain solvent systems, for example, solvent systems comprising one or more of the following solvents: acetonitril/water, acetone, or ethanol/water for extended period of time.

For the next data set, the system named is HL-60 human AML cells. Briefly: HL-60 IV AML xenograft model, survival study. The settings on record: positive control; p<0.05 vs vehicle. The format is in vivo, SCID mice. The method, then:
In this study, Compound 1 antitumor activity in the HL-60 IV AML xenograft model was studies. In this model, HL-60 human AML cells engraft in host BM and internal organs (eg, spleen, liver) and animals develop progressive peripheral leukocytosis. Female severe combined immunodeficiency (SCID) mice were inoculated with HL-60 cells by tail vein injection. To understand the effect of Compound 1 on the xenografted HL-60 cells, animals were dosed intraperitoneal (IP) with vehicle or Compound 1 (0.5, 1, 2.5, and 5 mg/kg) once daily (QD)×5 between Weeks 3 and 4 post-engraftment (AP6516, survival study) or animals were dosed IP twice daily (BID) with vehicle or Compound 1 for 5 or 10 consecutive days (5 mg/kg BID×5 or 2.5 mg/kg, BID×10) between Weeks 6 and 8 post-engraftment (Study AP6982, % human CD33+[hCD33+] cells in BM).
Tumor burden from the peripheral blood of HL-60-bearing animals was assessed by fluorescence-activated cell sorting (FACS) at Week 7 post-tumor cell inoculation. […] Mice from the vehicle control and Compound 1 treatment groups succumbed to disease burden starting on Day 54 for the vehicle control group and between Day 51 and Day 57 for the Compound 1 treatment groups. […] One mouse (1/8) from the 2.5 mg/kg Compound 1-treated group survived to study termination on Day 162.

For the compound `O=C1CCC(N2Cc3cc(CNC(=O)C(F)(F)c4ccc(Cl)cc4)ccc3C2=O)C(=O)N1` (centres unmarked) [Form A, 2-(4-chlorophenyl)-N-((2-(2,6-dioxopiperidin-3-yl)-1-oxoisoindolin-5-yl)methyl)-2,2-difluoroacetamide], in data set [1], the “water uptake (DVS)” value was “about 1.2 % w/w”. On the same count and under the same terms, the value for `O=C1CCC(N2Cc3cc(CNC(=O)C(F)(F)c4ccc(Cl)cc4)ccc3C2=O)C(=O)N1` (centres unmarked) [Form B, 2-(4-chlorophenyl)-N-((2-(2,6-dioxopiperidin-3-yl)-1-oxoisoindolin-5-yl)methyl)-2,2-difluoroacetamide] was “about 1.4 % w/w”. For the compound `O=C1CCC(N2Cc3cc(CNC(=O)C(F)(F)c4ccc(Cl)cc4)ccc3C2=O)C(=O)N1` (centres unmarked) [Form C, 2-(4-chlorophenyl)-N-((2-(2,6-dioxopiperidin-3-yl)-1-oxoisoindolin-5-yl)methyl)-2,2-difluoroacetamide], the “water uptake (DVS)” value in data set [1] is listed as “about 0.6 % w/w”. For the same compound, the “thermodynamic stability among the crystal forms” value in data set [2] was “most thermodynamically stable anhydrate”. In the data set with HL-60 human AML cells, `Nc1nc(F)nc2c1ncn2[C@@H]1O[C@H](CO)[C@@H](O)[C@@H]1O` [fludarabine, reference compound] returned a median survival of 76 days.
